Measured values: patent publication US7569354B2, “Cellomics system” (OnChip Cellomics Consortium, priority 2004, dated 2009)

What was measured:
[1] = tested on: blood from a patient suffering from leukemia; experiment: separation of cells causing leukemia by intake of labeled amino acids; type: cell-based, human
Method: Descriptions are provided below for a case in which cells causing leukemia are separated by applying the technique in Example 3 for cell separation. NDB folic acid (Ex465/Em540), 4,4-difluoro-1,3,5,7-tetramethyl-4-bora-3a,4a-diaza-s-indacene-8-propionate labeled ASn, and 4,4-difluoro-5-(2-pyrrole)-4-bora-3a,4a-diaza-s-indacene-3-propionate labeled Thr are added to blood from a patient suffering from leukemia, and the mixture is incubated for 30 minutes at 37° C. Using the NDB folic acid (Ex465/Em540) as a control, the amounts of intaked 4,4-difluoro-3,5,7-tetramethyl-4-bora-3a,4a-diaza-s-indacene-8-propionate labeled ASn (Ex493/Em503) and intaked 4,4-difluoro-5-(2-pyrrole)-4-bora-3a,4a-diaza-s-indacene-3-propionate labeled Thr are measured by detecting the fluorescent intensities of various derivatives of 4,4-difluoro-4-bora-3a,4a-diaza-s-indacene against the fluorescence intensity generated by NDB-labeled folic acid, and cells having high fluorescence intensity with the fluorescence wavelength of around 503 nm, namely cells having a large intake amount of the 4,4-difluoro-1,3,5,7-tetramethyl-4-bora-3a,4a-diaza-s-indacene-8-propionate labeled ASn are sorted with a cell sorter.

[2] = tested on: cells from a lever tissue; experiment: cell separation by cell permeability of NBD-labeled sugars, lever tissue cells; type: cell-based
[3] = tested on: cells from brain tissue pieces; experiment: cell separation by cell permeability of NBD-labeled sugars, brain-derived cells; type: cell-based; conditions: 15 minutes at 37° C., 200 cells processed
Text: In Example 2 for cell separation, a case is described in which differences of cells are recognized by measuring differences in cell permeability of a plurality of substrates and then discrete cells are separated. In this example, cells are identified and separated by observing the cell permeability of galactose or fructose against the glucose described in the aforementioned document. Generally, glucose is often used as an energy source for cells, but galactose or fructose is not directly consumed. For instance, when Escherichia coli is cultured in a mixed culture medium of glucose and fructose, glucose is consumed at first, and then […] is consumed when glucose decreases. Therefore, for instance, by measuring cell permeability of various types of substrates using a quantity of intaked glucose as control data, cell separation reflecting the state of cell more accurately can be performed.
In this example, a glucose labeling derivative of 6-(N-(7-nitrobenz-2-oxa-1.3-diazol-4-yl)amino) sugar (Ex465/Em540) (NBD-labeled sugar) is used. […] The culture fluid is exchanged with that not containing the NBD-labeled sugar, and the sample is immediately added to a cell sorter independently developed by the inventors, and cells with the relative fluorescence intensity of 500 or more are separated.

[4] = tested on: neurocyte / pulsating myocardial cell; conditions: added to culture fluid of the neurocyte side only
Method: In Example 3, examination is made for whether a beat cycle of the pulsating myocardial cell 2-1 kept in the cell holding zone 2 changes when potassium or glucose, or suspected endocrine disrupter is added to the culture fluid of the neurocyte 3-2 in the cell holding zone 3, or the content is increased.
At first, the same culture fluid is filled in the culture fluid baths 21-1, 21-2, and a beat cycle of the pulsating myocardial cell 2-1 is checked to obtain a myocardial pulsation pattern showing the substantially same cycle as shown in FIG. 49(A).

With “4,4-difluoro-1,3,5,7-tetramethyl-4-bora-3a,4a-diaza-s-indacene-8-propionate labeled ASn” the “cancerous leukocytes among the sorted cells with large intake, histological examination” value ([1]; 30 minutes at 37° C., fluorescence around 503 nm, NDB folic acid as control) was ≥ 95%.

In the case of “4,4-difluoro-5-(2-pyrrole)-4-bora-3a,4a-diaza-s-indacene-3-propionate labeled Thr”, the “intake rate in normal cells against cancer cells” value ([1]; compared to labeled Asn) is reported as “not so remarkable”.

With O=[N+]([O-])c1ccc(NCC2OC(O)C(O)C(O)[C@@H]2O)c2nonc12 (some centres unmarked) [NBD-labeled glucose] the “cells obtained with the relative fluorescence intensity of 500 or more” value [2] was 46 cells and the “cells obtained with the relative fluorescence intensity of 500 or more” value [3] was 66 cells.

With NCCc1ccc(O)c(O)c1 [dopamine, 2-dihydroxyphenylethylamine] the “beat cycle of the pulsating myocardial cell” value [4] was “disturbance in the beat cycle”.
